# Patent publication US7138361B2, “Herbicidal heterocycles” (E. I. du Pont de Nemours and Company, priority 2000, dated 2006)
# Experiments:
# Type in all cases: in vivo
# [1] = tested on: crabgrass (Digitaria sanguinalis); experiment: Test B postemergence; settings: Rate 125 g/ha, scale 0 to 100, 0 no effect, 100 complete control
# In short: (§1)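 Visual injury scores, 0 = no effect to 100 = complete control, assigned against controls after 13 to 15 days in the greenhouse. Compounds formulated in non-phytotoxic solvent plus surfactant and applied to soil after planting (pre) or onto foliage of 1- to 4-leaf plants (post).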
# [2] = tested on: lambsquarters (Chenopodium album); experiment: Test B postemergence; settings: Rate 125 g/ha, scale 0 to 100, 0 no effect, 100 complete control
# In short: as §1
# [3] = tested on: wild oat (Avena fatua); experiment: Test B postemergence; settings: Rate 125 g/ha, scale 0 to 100, 0 no effect, 100 complete control
# In short: as §1
# [4] = tested on: Surinam grass (Brachiaria decumbens); experiment: Test B postemergence
# In short: as §1
# [5] = tested on: cocklebur (Xanthium strumarium); experiment: Test B postemergence
# In short: as §1
# [6] = tested on: velvetleaf (Abutilon theophrasti); experiment: Test B postemergence; settings: Rate 125 g/ha, scale 0 to 100, 0 no effect, 100 complete control
# In short: as §1
# [7] = tested on: wheat (Triticum aestivum); experiment: Test B postemergence; settings: Rate 125 g/ha, scale 0 to 100, 0 no effect, 100 complete control
# In short: as §1
# [8] = tested on: giant foxtail (Setaria faberii); experiment: Test B postemergence; settings: Rate 125 g/ha, scale 0 to 100, 0 no effect, 100 complete control
# In short: as §1
# [9] = tested on: pigweed (Amaranthus retroflexus); experiment: Test B postemergence; settings: Rate 125 g/ha, scale 0 to 100, 0 no effect, 100 complete control
# In short: as §1
# [10] = tested on: barnyardgrass (Echinochloa crus-galli); experiment: Test B postemergence
# In short: as §1
# [11] = tested on: blackgrass (Alopecurus myosuroides); experiment: Test B postemergence
# In short: as §1
# [12] = tested on: morning glory (Ipomoea hederacea); experiment: Test B postemergence; settings: Rate 125 g/ha, scale 0 to 100, 0 no effect, 100 complete control
# In short: as §1
# [13] = tested on: corn (Zea mays); experiment: Test B postemergence
# In short: as §1
# [14] = tested on: crabgrass (Digitaria sanguinalis); experiment: Test B preemergence
# In short: as §1
# [15] = tested on: rice (Oryza saliva); experiment: Test B preemergence
# In short: as §1
# [16] = tested on: lambsquarters (Chenopodium album); experiment: Test B preemergence
# In short: as §1
# [17] = tested on: Surinam grass (Brachiaria decumbens); experiment: Test B preemergence
# In short: as §1
# [18] = tested on: cocklebur (Xanthium strumarium); experiment: Test B preemergence
# In short: as §1
# [19] = tested on: velvetleaf (Abutilon theophrasti); experiment: Test B preemergence
# In short: as §1
# [20] = tested on: giant foxtail (Setaria faberii); experiment: Test B preemergence
# In short: as §1
# [21] = tested on: pigweed (Amaranthus retroflexus); experiment: Test B preemergence
# In short: as §1
# [22] = tested on: barnyardgrass (Echinochloa crus-galli); experiment: Test B preemergence
# In short: as §1
# [23] = tested on: morning glory (Ipomoea hederacea); experiment: Test B preemergence
# In short: as §1
# [24] = tested on: corn (Zea mays); experiment: Test B preemergence
# In short: as §1
# [25] = tested on: Nightshade; experiment: Test C preemergence; settings: Rate 500 g/ha, visual evaluation after 12 to 14 days
# [26] = tested on: Sunflower; experiment: Test C preemergence; settings: Rate 500 g/ha, visual evaluation after 12 to 14 days
# [27] = tested on: smallflower flatsedge (Cyperus difformis); experiment: Test C flooded paddy test; settings: for Flatsedge plant response rating: Flooded Paddy, scale 0 to 100, 0 no effect, 100 complete control; for Plant response rating, Flatsedge: scale 0 to 100 (0 no effect, 100 complete control)
# In short: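 Visual injury score, 0 (no effect) to 100 (complete control), relative to controls. Paddy plants treated at 2-leaf stage; greenhouse hold 12–14 d before rating.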
# [28] = Rate 125 g/ha, scale 0 to 100, 0 no effect, 100 complete control
# [29] = Rate 500 g/ha, scale 0 to 100, 0 is no effect, 100 is complete control, 13 to 15 days
# [30] = Preemergence, Rate 500 g/ha, scale 0 to 100, 0 no effect, 100 complete control
# [31] = preemergence, Rate 125 g/ha, scale of 0 to 100 where 0 is no effect and 100 is complete control, 13 to 15 days
# [32] = flooded paddy test, Rate 125 g/ha
smiles,measurement,setting,value
CCOc1cccc(N2CCC(n3ccc(C(C)C)n3)C2=O)c1 (centres unmarked) [Compound 128],"Plant response rating, Crabgrass",[1],0
same,"Plant response rating, Lambsquarters",[2],0
same,"Plant response rating, Wild Oat",[3],0
same,"Plant response rating, Surinam grass",[4]; [28],70
same,"Plant response rating, Surinam grass",[4]; [29],100
same,"Plant response rating, Cocklebur",[5]; [28],0
same,"Plant response rating, Cocklebur",[5]; [29],50
same,"Plant response rating, Velvetleaf",[6],0
same,"Plant response rating, Wheat",[7],0
same,"Plant response rating, Foxtail, Giant",[8],0
same,"Plant response rating, Pigweed",[9],0
same,"Plant response rating, Barnyardgrass",[10]; [28],0
same,"Plant response rating, Barnyardgrass",[10]; [29],80
same,"Plant response rating, Blackgrass",[11]; [28],0
same,"Plant response rating, Blackgrass",[11]; [29],0
same,"Plant response rating, Morningglory",[12],0
same,"Plant response rating, Corn",[13]; [28],0
same,"Plant response rating, Corn",[13]; [29],0
same,"Plant response rating, Crabgrass",[14]; [30],100
same,"Plant response rating, Crabgrass",[14]; [31],100
same,"Plant response rating, Rice",[15]; [30],100
same,"Plant response rating, Rice",[15]; [31],100
same,"Plant response rating, Lambsquarters",[16]; [30],100
same,"Plant response rating, Lambsquarters",[16]; [31],100
same,"Plant response rating, Surinam grass",[17]; [30],100
same,"Plant response rating, Surinam grass",[17]; [31],100
same,"Plant response rating, Cocklebur",[18]; [30],60
same,"Plant response rating, Cocklebur",[18]; [31],0
same,"Plant response rating, Velvetleaf",[19]; [30],50
same,"Plant response rating, Velvetleaf",[19]; [31],0
same,"Plant response rating, Foxtail, Giant",[20]; [30],100
same,"Plant response rating, Foxtail, Giant",[20]; [31],100
same,"Plant response rating, Pigweed",[21]; [30],100
same,"Plant response rating, Pigweed",[21]; [31],100
same,"Plant response rating, Barnyardgrass",[22]; [30],100
same,"Plant response rating, Barnyardgrass",[22]; [31],100
same,"Plant response rating, Morningglory",[23]; [30],90
same,"Plant response rating, Morningglory",[23]; [31],70
same,"Plant response rating, Corn",[24]; [30],60
same,"Plant response rating, Corn",[24]; [31],30
same,"Plant response rating (0 to 100), Nightshade",[25],100
same,"Plant response rating (0 to 100), Sunflower",[26],100
same,Flatsedge plant response rating,[27]; Rate 250 g/ha,100
same,Flatsedge plant response rating,[27]; Rate 500 g/ha,100
same,"Plant response rating, Flatsedge","[27]; flooded paddy test, Rate 62 g/ha",90
same,"Plant response rating, Flatsedge",[27]; [32],90
CCCC(C)c1ccn(C2CCN(c3cccc(OCC)c3)C2=O)n1 (centres unmarked) [Compound 129],"Plant response rating, Crabgrass",[1],0
same,"Plant response rating, Lambsquarters",[2],100
same,"Plant response rating, Wild Oat",[3],0
same,"Plant response rating, Surinam grass",[4]; [28],0
same,"Plant response rating, Surinam grass",[4]; [29],0
same,"Plant response rating, Cocklebur",[5]; [28],0
same,"Plant response rating, Cocklebur",[5]; [29],30
same,"Plant response rating, Velvetleaf",[6],0
same,"Plant response rating, Wheat",[7],0
same,"Plant response rating, Foxtail, Giant",[8],0
same,"Plant response rating, Pigweed",[9],0
same,"Plant response rating, Barnyardgrass",[10]; [28],0
same,"Plant response rating, Barnyardgrass",[10]; [29],60
same,"Plant response rating, Blackgrass",[11]; [28],0
same,"Plant response rating, Blackgrass",[11]; [29],0
same,"Plant response rating, Morningglory",[12],0
same,"Plant response rating, Corn",[13]; [28],0
same,"Plant response rating, Corn",[13]; [29],0
same,"Plant response rating, Crabgrass",[14]; [30],100
same,"Plant response rating, Crabgrass",[14]; [31],100
same,"Plant response rating, Rice",[15]; [30],50
same,"Plant response rating, Rice",[15]; [31],30
same,"Plant response rating, Lambsquarters",[16]; [30],100
same,"Plant response rating, Lambsquarters",[16]; [31],100
same,"Plant response rating, Surinam grass",[17]; [30],100
same,"Plant response rating, Surinam grass",[17]; [31],90
same,"Plant response rating, Cocklebur",[18]; [30],0
same,"Plant response rating, Cocklebur",[18]; [31],0
same,"Plant response rating, Velvetleaf",[19]; [30],0
same,"Plant response rating, Velvetleaf",[19]; [31],0
same,"Plant response rating, Foxtail, Giant",[20]; [30],100
same,"Plant response rating, Foxtail, Giant",[20]; [31],100
same,"Plant response rating, Pigweed",[21]; [30],100
same,"Plant response rating, Pigweed",[21]; [31],100
same,"Plant response rating, Barnyardgrass",[22]; [30],100
same,"Plant response rating, Barnyardgrass",[22]; [31],100
same,"Plant response rating, Morningglory",[23]; [30],0
same,"Plant response rating, Morningglory",[23]; [31],0
same,"Plant response rating, Corn",[24]; [30],30
same,"Plant response rating, Corn",[24]; [31],20
same,"Plant response rating (0 to 100), Nightshade",[25],60
same,"Plant response rating (0 to 100), Sunflower",[26],10
same,Flatsedge plant response rating,[27]; Rate 250 g/ha,90
same,Flatsedge plant response rating,[27]; Rate 500 g/ha,90
same,"Plant response rating, Flatsedge",[27]; [32],80
same,"Plant response rating (scale 0 to 100), Flatsedge","[27]; flooded paddy test, Rate 62 g/ha, visually evaluated after 12 to 14 days, 0 = no effect, 100 = complete control",70
